Among the data in patent US20180235221A1 (priority 2015, published 2018) are Observed efficacy values, retold here.

In the test the test system is Qol resistant Pyricularia oryzae isolate (1328). Format: cell-based. As to conditions: single active compound, MTP, 405 nm, 7 days after inoculation.

Where two headings read alike, the source gives them in different places.

`CNC(=O)C(=N/OC)/C(C)=C\COc1ccn(-c2ccc(Cl)cc2)n1` [Compound I-1, (Z,2E)-5-[1-(4-chlorophenyl)pyrazol-3-yl]oxy-2-methoxyimino-N,3-dimethyl-pent-3-enamide]: the Observed efficacy is, setting by setting: (0.063 ppm) 1%; (0.25 ppm) 65%.
On the same counts, the results for `CNC(=O)C(=N/OC)/C(C)=C\COc1ccn(-c2ccc(Cl)cc2Cl)n1` [Compound I-3, (Z,2E)-5-[1-(2,4-dichlorophenyl)pyrazol-3-yl]oxy-2-methoxyimino-N,3-dimethyl-pent-3-en-amide] are 2% and 54%.
Turning to `Cn1nnn(-c2cccc(Cl)c2COc2ccn(-c3ccc(Cl)cc3)n2)c1=O` [II-1, 1-[3-chloro-2[[1-(4-chlorophenyl)-1H-pyrazol-3-yl]oxymethyl]phenyl]-4-methyl-tetrazol-5-one], the Observed efficacy (0.016 ppm) is listed as 0%.
Still for that read-out and setting: the figure for `Cn1nnn(-c2cccc(Br)c2COc2ccn(-c3ccc(Cl)cc3)n2)c1=O` [II-2, 1-[3-bromo-2-[[1-(4-chlorophenyl)pyrazol-3-yl]oxymethyl]phenyl]-4-methyl-tetrazol-5-one] is 2%.
Same read-out and setting: with `Cc1cccc(-n2nnn(C)c2=O)c1COc1ccn(-c2ccc(Cl)cc2)n1` [II-3, 1-[2-[[1-(4-chlorophenyl)pyrazol-3-yl]oxymethyl]-3-methyl-phenyl]-4-methyl-tetrazol-5-one] the figure was 44%.
As for `Cn1nnn(-c2cccc(F)c2COc2ccn(-c3ccc(Cl)cc3)n2)c1=O` [II-4, 1-[2-[[1-(4-chlorophenyl)pyrazol-3-yl]oxymethyl]-3-fluoro-phenyl]-4-methyl-tetrazol-5-one], the Observed efficacy (0.063 ppm) is on record as 1%.
In the case of `Cn1nnn(-c2cccc(F)c2COc2ccn(-c3ccc(Cl)cc3Cl)n2)c1=O` [II-5, 1-[2-[[1-(2,4-dichlorophenyl)pyrazol-3-yl]oxymethyl]-3-fluoro-phenyl]-4-methyl-tetrazol-5-one], the Observed efficacy (0.25 ppm) came to 44%.
On to `CC(=NOCc1c(C)cccc1-n1nnn(C)c1=O)c1cccc(C(F)(F)F)c1` [II-11, -methyl-4-[3-methyl-2-[[1-[3-(trifluoromethyl)-phenyl]-ethylideneamino]oxymethyl]phenyl]tetrazol-5-one], for which, for the setting “0.063 ppm”, the Observed efficacy was 2%.
